Here are results for 29 compounds from patent publication US7473790B2 (Pfizer Inc., priority 2003, dated 2009).

One may read the IC50 as the concentration at which inhibition is half-maximal.

Structures are written as SMILES.

T1 sequence (P26663 2420-3010): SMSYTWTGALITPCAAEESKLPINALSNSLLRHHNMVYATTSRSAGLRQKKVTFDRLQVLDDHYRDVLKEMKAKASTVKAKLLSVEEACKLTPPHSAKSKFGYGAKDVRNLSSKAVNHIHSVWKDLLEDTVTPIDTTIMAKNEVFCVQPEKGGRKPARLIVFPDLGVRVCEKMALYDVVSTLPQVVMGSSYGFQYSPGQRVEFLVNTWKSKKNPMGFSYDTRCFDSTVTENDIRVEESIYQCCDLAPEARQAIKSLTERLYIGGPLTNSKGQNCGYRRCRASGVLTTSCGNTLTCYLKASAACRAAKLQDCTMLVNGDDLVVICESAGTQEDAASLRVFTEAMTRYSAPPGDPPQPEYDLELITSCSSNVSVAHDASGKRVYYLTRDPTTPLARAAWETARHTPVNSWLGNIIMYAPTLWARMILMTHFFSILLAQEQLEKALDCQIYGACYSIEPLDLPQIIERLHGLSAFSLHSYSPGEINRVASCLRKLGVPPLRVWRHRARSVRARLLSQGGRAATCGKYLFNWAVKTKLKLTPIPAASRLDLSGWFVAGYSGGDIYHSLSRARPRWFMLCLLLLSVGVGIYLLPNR

This assay concerns the target T1, HCV polymerase (Hepatitis C virus genotype 1b, UniProt P26663).
T1 construct: 2.5 pmoles (0.15 μg) HCV polymerase protein in a final volume of 75 μL
Description: HCV polymerase primer/template-directed transcription assay (32P-GTP incorporation, filter binding). Format: biochemical. The settings on record: recombinant HCV polymerase; 30 minutes at 30° C.; concentration giving 50% inhibition of polymerase-directed transcription; read-out: IC50. A digest of the protocol:
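Recombinant genotype 1b polymerase (30 nM) extended biotin-dG12 primer on poly(rC)300 template with 1 μM GTP plus α-32P-GTP, pH 7.2, 10 mM MgCl2, 30 min at 30° C, 1% DMSO final. Products captured on DE filters and counted. IC50 fitted from triplicate cpm, with a tight-binding correction applied below 200 nM.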
`COc1ccc(CCC2(C3CCCC3)CC(O)=C(Sc3nc4cc(Cl)ccc4n3C(C)C)C(=O)O2)cc1Cl` (centres unmarked) [C(40), 3-[(5-chloro-1-isopropyl-1H-benzimidazol-2-yl)thio]-6-[2-(3-chloro-4-methoxyphenyl)ethyl]-6-cyclopentyl-4-hydroxy-5,6-dihydro-2H-pyran-2-one]: the IC50 came to 25 nM.

With `COc1ccc(CCC2(C3CCCC3)CC(O)=C(Sc3nc4ccccc4n3C)C(=O)O2)cc1Cl` (centres unmarked) [C(41), 6-[2-(3-chloro-4-methoxyphenyl)ethyl]-6-cyclopentyl-4-hydroxy-3-[(1-methyl-1H-benzimidazol-2-yl)thio]-5,6-dihydro-2H-pyran-2-one], the concentration for half-maximal inhibition (IC50) was 170 nM.

Take `COc1ccc(CCC2(C3CCCC3)CC(O)=C(Sc3nnc(-c4ccco4)n3C)C(=O)O2)cc1Cl` (centres unmarked) [C(42), 6-[2-(3-chloro-4-methoxyphenyl)ethyl]-6-cyclopentyl-3-{[5-(2-furyl)-4-methyl-4H-1,2,4-triazol-3-yl]thio}-4-hydroxy-5,6-dihydro-2H-pyran-2-one]: the IC50 turned out to be 13 nM.

With `COc1ccc(CCC2(C3CCCC3)CC(O)=C(Sc3nc4ncccc4[nH]3)C(=O)O2)cc1Cl` (centres unmarked) [C(43), 6-[2-(3-chloro-4-methoxyphenyl)ethyl]-6-cyclopentyl-4-hydroxy-3-(1H-imidazo[4,5-b]pyridin-2-ylthio)-5,6-dihydro-2H-pyran-2-one], the IC50 was 35 nM.

On to `COc1ccc(CCC2(C3CCCC3)CC(O)=C(Sc3nc4ccccc4n3C(C)C)C(=O)O2)cc1Cl` (centres unmarked) [C(44), 6-[2-(3-chloro-4-methoxyphenyl)ethyl]-6-cyclopentyl-4-hydroxy-3-[(1-isopropyl-1H-benzimidazol-2-yl)thio]-5,6-dihydro-2H-pyran-2-one], for which the IC50 came to 180 nM.

For the compound `COc1ccc(CCC2(C3CCCC3)CC(O)=C(Sc3nc4ccccc4s3)C(=O)O2)cc1Cl` (centres unmarked) [C(45), 3-(1,3-benzothiazol-2-ylthio)-6-[2-(3-chloro-4-methoxyphenyl)ethyl]-6-cyclopentyl-4-hydroxy-5,6-dihydro-2H-pyran-2-one], the IC50 stood at 3200 nM.

For `COc1ccc(CCC2(C3CCCC3)CC(O)=C(Sc3nc4cnccc4[nH]3)C(=O)O2)cc1Cl` (centres unmarked) [C(46), 6-[2-(3-chloro-4-methoxyphenyl)ethyl]-6-cyclopentyl-4-hydroxy-3-(1H-imidazo[4,5-c]pyridin-2-ylthio)-5,6-dihydro-2H-pyran-2-one], the IC50 was determined as 37 nM.

Consider `COc1ccc(CCC2(C3CCCC3)CC(O)=C(Sc3nc4cccnc4s3)C(=O)O2)cc1Cl` (centres unmarked) [C(47), 6-[2-(3-chloro-4-methoxyphenyl)ethyl]-6-cyclopentyl-4-hydroxy-3-([1,3]thiazolo[5,4-b]pyridin-2-ylthio)-5,6-dihydro-2H-pyran-2-one], for which the concentration for half-maximal inhibition (IC50) is 240 nM.

Take `COc1ccc(CCC2(C3CCCC3)CC(O)=C(Sc3nc4ccccc4n3-c3ccccc3)C(=O)O2)cc1Cl` (centres unmarked) [C(48), 6-[2-(3-chloro-4-methoxyphenyl)ethyl]-6-cyclopentyl-4-hydroxy-3-[(1-phenyl-1H-benzimidazol-2-yl)thio]-5,6-dihydro-2H-pyran-2-one]: the IC50 was 140 nM.

Consider `COc1ccc(CCC2(C3CCCC3)CC(O)=C(Sc3nc4cc(Cl)ccc4[nH]3)C(=O)O2)cc1Cl` (centres unmarked) [C(49), 3-[(5-chloro-1H-benzimidazol-2-yl)thio]-6-[2-(3-chloro-4-methoxyphenyl)ethyl]-6-cyclopentyl-4-hydroxy-5,6-dihydro-2H-pyran-2-one], for which the IC50 is 80 nM.

For `COc1ccc(CCC2(C3CCCC3)CC(O)=C(Sc3nnc(-c4ccncc4)[nH]3)C(=O)O2)cc1Cl` (centres unmarked) [C(50), 6-[2-(3-chloro-4-methoxyphenyl)ethyl]-6-cyclopentyl-4-hydroxy-3-[(5-pyridin-4-yl-4H-1,2,4-triazol-3-yl)thio]-5,6-dihydro-2H-pyran-2-one], the IC50 was 10 nM.

As to `COc1ccc(CCC2(C3CCCC3)CC(O)=C(Sc3nnc(-c4ccncc4)o3)C(=O)O2)cc1Cl` (centres unmarked) [C(51), 6-[2-(3-chloro-4-methoxyphenyl)ethyl]-6-cyclopentyl-4-hydroxy-3-[(5-pyridin-4-yl-1,3,4-oxadiazol-2-yl)thio]-5,6-dihydro-2H-pyran-2-one], the IC50 came out at 256 nM.

As for `COc1ccc(CCC2(C3CCCC3)CC(O)=C(Sc3nc4cc(F)ccc4[nH]3)C(=O)O2)cc1Cl` (centres unmarked) [C(52), 6-[2-(3-chloro-4-methoxyphenyl)ethyl]-6-cyclopentyl-3-[(5-fluoro-1H-benzimidazol-2-yl)thio]-4-hydroxy-5,6-dihydro-2H-pyran-2-one], the IC50 was found to be 140 nM.

Consider `COc1ccc(CCC2(C3CCCC3)CC(O)=C(Sc3nc4cc(C)ccc4[nH]3)C(=O)O2)cc1Cl` (centres unmarked) [C(53), 6-[2-(3-chloro-4-methoxyphenyl)ethyl]-6-cyclopentyl-4-hydroxy-3-[(5-methyl-1H-benzimidazol-2-yl)thio]-5,6-dihydro-2H-pyran-2-one], for which the IC50 was 67 nM.

Consider `COc1ccc(CCC2(C3CCCC3)CC(O)=C(Sc3nc4c(C)cccc4[nH]3)C(=O)O2)cc1Cl` (centres unmarked) [C(54), 6-[2-(3-chloro-4-methoxyphenyl)ethyl]-6-cyclopentyl-4-hydroxy-3-[(4-methyl-1H-benzimidazol-2-yl)thio]-5,6-dihydro-2H-pyran-2-one], for which the IC50 was found to be 220 nM.

For `COc1ccc(CCC2(C3CCCC3)CC(O)=C(Sc3nc4cc(C#N)ccc4[nH]3)C(=O)O2)cc1Cl` (centres unmarked) [C(55), 2-({6-[2-(3-chloro-4-methoxyphenyl)ethyl]-6-cyclopentyl-4-hydroxy-2-oxo-5,6-dihydro-2H-pyran-3-yl}thio)-1H-benzimidazole-5-carbonitrile], the IC50 was 30 nM.

For `COc1ccc(CCC2(C3CCCC3)CC(O)=C(Sc3ncccc3C#N)C(=O)O2)cc1Cl` (centres unmarked) [C(56), 2-({6-[2-(3-chloro-4-methoxyphenyl)ethyl]-6-cyclopentyl-4-hydroxy-2-oxo-5,6-dihydro-2H-pyran-3-yl}thio)nicotinonitrile], the IC50 is 1300 nM.

As to `COc1ccc(CCC2(C3CCCC3)CC(O)=C(Sc3nc4cc(Cl)ccc4n3C)C(=O)O2)cc1Cl` (centres unmarked) [C(57), 6-[2-(3-chloro-4-methoxyphenyl)ethyl]-3-[(5-chloro-1-methyl-1H-benzimidazol-2-yl)thio]-6-cyclopentyl-4-hydroxy-5,6-dihydro-2H-pyran-2-one], the 50% inhibitory concentration (IC50) was 2 nM.

Turning to `COc1ccc(CCC2(C3CCCC3)CC(O)=C(Sc3nc4c(O)cccc4[nH]3)C(=O)O2)cc1Cl` (centres unmarked) [C(58), 6-[2-(3-chloro-4-methoxyphenyl)ethyl]-6-cyclopentyl-4-hydroxy-3-[(4-hydroxy-1H-benzimidazol-2-yl)thio]-5,6-dihydro-2H-pyran-2-one], the IC50 came out at 140 nM.

`CCOc1ccc2[nH]c(SC3=C(O)CC(CCc4ccc(OC)c(Cl)c4)(C4CCCC4)OC3=O)nc2c1` (centres unmarked) [C(59), 6-[2-(3-chloro-4-methoxyphenyl)ethyl]-6-cyclopentyl-3-[(5-ethoxy-1H-benzimidazol-2-yl)thio]-4-hydroxy-5,6-dihydro-2H-pyran-2-one]: the IC50 worked out at 200 nM.

For `COc1ccc(CCC2(C3CCCC3)CC(O)=C(Sc3nc4cc(Cl)c(Cl)cc4n3C)C(=O)O2)cc1Cl` (centres unmarked) [C(60), 6-[2-(3-chloro-4-methoxyphenyl)ethyl]-6-cyclopentyl-3-[(5,6-dichloro-1-methyl-1H-benzimidazol-2-yl)thio]-4-hydroxy-5,6-dihydro-2H-pyran-2-one], the IC50 stood at 15 nM.

As to `COc1ccc(CCC2(C3CCCC3)CC(O)=C(Sc3nc4cc(Cl)c(F)cc4[nH]3)C(=O)O2)cc1Cl` (centres unmarked) [C(61), 3-[(5-chloro-6-fluoro-1H-benzimidazol-2-yl)thio]-6-[2-(3-chloro-4-methoxyphenyl)ethyl]-6-cyclopentyl-4-hydroxy-5,6-dihydro-2H-pyran-2-one], the IC50 came out at 140 nM.

With `COc1ccc(CCC2(C3CCCC3)CC(O)=C(Sc3nc4cc(C(F)(F)F)cc(Cl)c4[nH]3)C(=O)O2)cc1Cl` (centres unmarked) [C(62), 6-[2-(3-chloro-4-methoxyphenyl)ethyl]-3-{[7-chloro-5-(trifluoromethyl)-1H-benzimidazol-2-yl]thio}-6-cyclopentyl-4-hydroxy-5,6-dihydro-2H-pyran-2-one], the IC50 is 500 nM.

Turning to `COc1cc(OC)c(CCC2(C3CCCC3)CC(O)=C(Sc3nc4cc(Cl)ccc4n3C)C(=O)O2)cc1Cl` (centres unmarked) [C(63), 6-[2-(5-chloro-2,4-dimethoxyphenyl)ethyl]-3-[(5-chloro-1-methyl-1H-benzimidazol-2-yl)thio]-6-cyclopentyl-4-hydroxy-5,6-dihydro-2H-pyran-2-one], the IC50 is 8 nM.

`COc1ccc(CCC2(C3CCCC3)CC(O)=C(Sc3nc4cncnc4[nH]3)C(=O)O2)cc1Cl` (centres unmarked) [C(65), 6-[2-(3-chloro-4-methoxyphenyl)ethyl]-6-cyclopentyl-4-hydroxy-3-(9H-purin-8-ylthio)-5,6-dihydro-2H-pyran-2-one]: the IC50 came out at 54 nM.

On to `COc1ccc(CCC2(C3CCCC3)CC(O)=C(Sc3ccc4ccccc4n3)C(=O)O2)cc1Cl` (centres unmarked) [C(66), 6-[2-(3-chloro-4-methoxyphenyl)ethyl]-6-cyclopentyl-4-hydroxy-3-(quinolin-2-ylthio)-5,6-dihydro-2H-pyran-2-one], for which the IC50 is 900 nM.

`COc1ccc(CCC2(C3CCCC3)CC(O)=C(Sc3ncc4[nH]cnc4n3)C(=O)O2)cc1Cl` (centres unmarked) [C(67), 6-[2-(3-chloro-4-methoxyphenyl)ethyl]-6-cyclopentyl-4-hydroxy-3-(7H-purin-2-ylthio)-5,6-dihydro-2H-pyran-2-one]: the IC50 came to 50 nM.

`COc1ccc(CCC2(C3CCCC3)CC(O)=C(Sc3ncnc4ccccc34)C(=O)O2)cc1Cl` (centres unmarked) [C(68), 6-[2-(3-chloro-4-methoxyphenyl)ethyl]-6-cyclopentyl-4-hydroxy-3-(quinazolin-4-ylthio)-5,6-dihydro-2H-pyran-2-one]: the concentration for half-maximal inhibition (IC50) came out at 200 nM.

`Cc1cc(C)n2nc(SC3=C(O)CC(CCc4ccc(C(F)F)c(F)c4)(C4CCCC4)OC3=O)nc2n1` (centres unmarked) [C(69), 6-Cyclopentyl-6-{2-[4-(difluoromethyl)-3-fluorophenyl]ethyl}-3-[(5,7-dimethyl[1,2,4]triazolo[1,5-a]pyrimidin-2-yl)thio]-4-hydroxy-5,6-dihydro-2H-pyran-2-one]: the IC50 was found to be 130 nM.
